Laboratory results from patent US11098018B2, “Potassium channel inhibitors” (ACESION PHARMA ApS, priority 2017, dated 2021).
pIC50: −log10 of the molar value.

Biological target: T1, human SK3 channel (hKCa0.2.3) (Homo sapiens, UniProt Q9UGI6)
T1 construct: expressed in transfected cells
Test: Automated patch clamping (QPatch whole-cell)
Type: cell-based
Conditions: HEK-293 cells stably expressing human SK3; free calcium 400 nM; normalized to inhibitory effect of N-methyl bicuculline
Method: Automated whole cell patch-clamp recordings were performed using a QPatch 16 HT system and single-hole Qplates (Biolin Scientific, Sophion, Denmark) on HEK-293 cells stably expressing the human SK3 channel (hKCa0.2.3). Cells were cultured and prepared for experiments using normal cell culturing procedures. A total of 4-5 million cells were used per experiment. The Qpatch automatically generates giga sealing, whole-cell formation, compound application and recording of current. hKCa2.3 currents were recorded in symmetrical K^+ solutions, with an intracellular solution consisting of in mM: KCl 108; KOH/EGTA (ethylene glycol-bis(2-aminoethylether)-N,N,N′,N′-tetraacetic acid) 31.25/10; CaCl2) 8.1; MgCl2 1.2; HEPES (2-[4-(2-hydroxyethyl)piperazin-1-yl]ethanesulfonic acid) 10; KOH 15, pH adjusted to pH=7.2 with HCl. The free calcium concentration was calculated to 400 nM. The extracellular solution consisted of in mM: KCl 150; CaCl2) 0.1; MgCl2 3; HEPES 10; Glucose 10, pH=7.4 with KOH. The cells were held at 0 mV and hKCa0.2.3 currents were elicited by a linear voltage ramp from −80 mV to +80 mV (200 ms in duration) applied every 5th second. The compound application protocol consisted of 12 recording periods lasting from 50-200 s: 1) Baseline recordings in extracellular solution; 2) Application of the positive control N-methyl bicuculline (100 μM), which is characterized by full efficacy, fast on- and off-rate; 3-4) Wash-out; 5-9) Increasing concentrations of test compound to establish an IC50 value; 10-11) Wash-out; 12) positive control with compound NS8593 (N-[(1R)-1,2,3,4-tetrahydro-1-naphthalenyl]-1H-benzimidazol-2-amine) (1 μM). Data were sampled at 10 kHz, 4th order Bessel filter, cut-off frequency 3 kHz. Currents were compensated for run-down. Potency was quantified as the concentration needed to inhibit half of the SK channel activity and reported as an IC50 value. All effects of compounds of the present invention as tested were normalized to the observed inhibitory effect of N-methyl bicuculline.

SMILES | pIC50
CNC(=O)C(C)(Nc1nc2ccccc2[nH]1)c1cccc(C(F)(F)F)c1 (single isomer, unassigned; (+)) [Example 26a, (+)-2-[(1H-1,3-benzodiazol-2-yl)amino]-N-methyl-2-[3-(trifluoromethyl)phenyl]propanamide] | > 5.00
CN(C)C(=O)C(Nc1nc2ccccc2[nH]1)c1cccc(C(F)(F)F)c1 (single isomer, unassigned; (-)) [Example 1a, (−)2-[(1H-1,3-benzodiazol-2-yl)amino]-N,N-dimethyl-2-[3-(trifluoromethyl)phenyl]acetamide] | > 5.00
CN(C)C(=O)C(Nc1nc2ccccc2[nH]1)c1cccc(C(F)(F)F)c1 (centres unmarked) [Example 1, 2-[(1H-1,3-benzodiazol-2-yl)amino]-N,N-dimethyl-2-[3-(trifluoromethyl)phenyl]acetamide] | > 5.00
CNC(=O)CC(Nc1nc2c(C)c(F)ccc2[nH]1)c1cccc(C(F)(F)F)c1 (centres unmarked) [Example 4, 3-[(5-fluoro-4-methyl-1H-1,3-benzodiazol-2-yl)amino]-N-methyl-3-[3-(trifluoromethyl)phenyl]propanamide] | > 5.00
COC(=O)C(Cc1cccc(C(F)(F)F)c1)Nc1nc2c(NC(C)=O)cccc2[nH]1 (centres unmarked) [Example 7, methyl 2-[(4-acetamido-1H-1,3-benzodiazol-2-yl)amino]-3-[3-(trifluoromethyl)phenyl]propanoate] | > 5.00
CNC(=O)CC(Nc1nc2ccccc2[nH]1)c1cc(C)c(F)c(C)c1 (centres unmarked) [Example 9, 3-[(1H-1,3-benzodiazol-2-yl)amino]-3-(4-fluoro-3,5-dimethylphenyl)-N-methylpropanamide] | > 5.00
CNC(=O)CC(Nc1nc2ccccc2[nH]1)c1ccc(Cl)c(C)c1 (centres unmarked) [Example 10, 3-[(1H-1,3-benzodiazol-2-yl)amino]-3-(4-chloro-3-methylphenyl)-N-methylpropanamide] | > 5.00
Cc1c(F)ccc2[nH]c(NC(CC(N)=O)c3cccc(C(F)(F)F)c3)nc12 (centres unmarked) [Example 14, 3-[(5-fluoro-4-methyl-1H-1,3-benzodiazol-2-yl)amino]-3-[3-(trifluoromethyl)phenyl]propanamide] | > 5.00
CC(C)CNC(=O)C(Nc1nc2ccccc2[nH]1)c1cccc(C(F)(F)F)c1 (centres unmarked) [Example 15, 2-[(1H-1,3-benzodiazol-2-yl)amino]-N-(2-methylpropyl)-2-[3-(trifluoromethyl)phenyl]acetamide] | > 5.00
O=C(NC1CC1)C(Nc1nc2ccccc2[nH]1)c1cccc(C(F)(F)F)c1 (centres unmarked) [Example 16, 2-[(1H-1,3-benzodiazol-2-yl)amino]-N-cyclopropyl-2-[3-(trifluoromethyl)phenyl]acetamide] | > 5.00
CNC(=O)CC(Nc1nc2cc(OC(F)(F)F)ccc2[nH]1)c1cccc(C(F)(F)F)c1 (centres unmarked) [Example 18, N-methyl-3-{[5-(trifluoromethoxy)-1H-1,3-benzodiazol-2-yl]amino}-3-[3-(trifluoromethyl)phenyl]propanamide; trifluoroacetic acid] | > 5.00
CNC(=O)CC(Nc1nc2c(CO)cccc2[nH]1)c1cccc(SC(F)(F)F)c1 (centres unmarked) [Example 21, 3-{[4-(hydroxymethyl)-1H-1,3-benzodiazol-2-yl]amino}-N-methyl-3-{3-[(trifluoromethyl)sulfanyl]phenyl}propanamide] | > 5.00
CNC(=O)CC(Nc1nc2ccccc2[nH]1)c1ccc(Cl)c(Cl)c1 (centres unmarked) [Example 22, 3-[(1H-1,3-benzodiazol-2-yl)amino]-3-(3,4-dichlorophenyl)-N-methylpropanamide] | > 5.00
CNC(=O)CC(Nc1nc2ccccc2[nH]1)c1cccc(C(=O)OC)c1 (centres unmarked) [Example 24, methyl 3-{1-[(1H-1,3-benzodiazol-2-yl)amino]-2-(methylcarbamoyl)ethyl}benzoate] | > 5.00
CNC(=O)C(C)(Nc1nc2ccccc2[nH]1)c1cccc(C(F)(F)F)c1 (centres unmarked) [Example 26, 2-[(1H-1,3-benzodiazol-2-yl)amino]-N-methyl-2-[3-(trifluoromethyl)phenyl]propanamide; trifluoroacetic acid] | > 5.00

The next lines start with the values.

pIC50 | SMILES
> 5.00 | CNC(=O)CC(Nc1nc2ccccc2[nH]1)c1cccc(C(F)(F)F)c1 (single isomer, unassigned; (-)) [Example 2a, (−)3-[(1H-1,3-benzodiazol-2-yl)amino]-N-methyl-3-[3(trifluoromethyl)phenyl]propanamide]
> 5.00 | CNC(=O)CCC(Nc1nc2ccccc2[nH]1)c1cccc(C(F)(F)F)c1 (single isomer, unassigned; (-)) [Example 25a, (−)-4-[(1H-1,3-benzodiazol-2-yl)amino]-N-methyl-4-[3-(trifluoromethyl)phenyl]butanamide]
> 5.00 | CNC(=O)CC(Nc1nc2ccccc2[nH]1)c1cccc(C(F)(F)F)c1 (centres unmarked) [Example 2, 3-[(1H-1,3-benzodiazol-2-yl)amino]-N-methyl-3-[3(trifluoromethyl)phenyl]propanamide]
> 5.00 | C=CCNC(=O)CC(Nc1nc2ccccc2[nH]1)c1cccc(C(F)(F)F)c1 (centres unmarked) [Example 3, 3-[(1H-1,3-benzodiazol-2-yl)amino]-N-(prop-2-en-1-yl)-3-[3-(trifluoromethyl)phenyl]propanamide]
> 5.00 | CNC(=O)CC(Nc1nc2c(C)cccc2[nH]1)c1cccc(C(F)(F)F)c1 (centres unmarked) [Example 5, N-methyl-3-[(4-methyl-1H-1,3-benzodiazol-2-yl)amino]-3-[3-(trifluoromethyl)phenyl]propanamide]
> 4.00 | CNC(=O)CC(Nc1nc2c(CCO)cccc2[nH]1)c1cccc(C(F)(F)F)c1 (centres unmarked) [Example 6, 3-{[4-(2-hydroxyethyl)-1H-1,3-benzodiazol-2-yl]amino}-N-methyl-3-[3-(trifluoromethyl)phenyl]propanamide]
> 4.00 | CNC(=O)C(Cc1cccc(C(F)(F)F)c1)Nc1nc2ccccc2[nH]1 (centres unmarked) [Example 8, 2-[(1H-1,3-benzodiazol-2-yl)amino]-N-methyl-3-[3-(trifluoromethyl)phenyl]propanamide]
> 5.00 | CON(C)C(=O)CC(Nc1nc2ccccc2[nH]1)c1cccc(C(F)(F)F)c1 (centres unmarked) [Example 11, 3-[(1H-1,3-benzodiazol-2-yl)amino]-N-methoxy-N-methyl-3-[3-(trifluoromethyl)phenyl]propanamide]
> 5.00 | CNC(=O)CC(Nc1nc2ccccc2[nH]1)c1cccc(SC)c1 (centres unmarked) [Example 12, 3-[(1H-1,3-benzodiazol-2-yl)amino]-N-methyl-3-[3-(methylsulfanyl)phenyl]propanamide]
> 5.00 | CNC(=O)CC(Nc1nc2ccccc2[nH]1)c1cccc(OC(F)(F)F)c1 (centres unmarked) [Example 13, 3-[(1H-1,3-benzodiazol-2-yl)amino]-N-methyl-3-[3-(trifluoromethoxy)phenyl]propanamide]
> 5.00 | CNC(=O)CC(Nc1nc2cc(F)ccc2[nH]1)c1cccc(C(F)(F)F)c1 (centres unmarked) [Example 17, 3-[(5-fluoro-1H-1,3-benzodiazol-2-yl)amino]-N-methyl-3-[3-(trifluoromethyl)phenyl]propanamide]
> 5.00 | CNC(=O)CC(Nc1nc2c(COC)cccc2[nH]1)c1cccc(C(F)(F)F)c1 (centres unmarked) [Example 19, 3-{[4-(methoxymethyl)-1H-1,3-benzodiazol-2-yl]amino}-N-methyl-3-[3-(trifluoromethyl)phenyl]propanamide]
> 5.00 | CNC(=O)CC(Nc1nc2c(Cl)cccc2[nH]1)c1cccc(C(F)(F)F)c1 (centres unmarked) [Example 20, 3-[(4-chloro-1H-1,3-benzodiazol-2-yl)amino]-N-methyl-3-[3-(trifluoromethyl)phenyl]propanamide]
> 5.00 | CNC(=O)CCC(Nc1nc2ccccc2[nH]1)c1cccc(C(F)(F)F)c1 (centres unmarked) [Example 25, 4-[(1H-1,3-benzodiazol-2-yl)amino]-N-methyl-4-[3-(trifluoromethyl)phenyl]butanamide]
